Where two headings read alike, the source gives them in different places.
Columns and labels:
[1] = system: coronary arteries of ovariectomized female rhesus monkeys (serotonin + U46619 induced vasospasm); test: Drug-induced (serotonin + U46619) coronary vasospasm in ovariectomized rhesus monkeys, angiography; type: in vivo, rhesus monkeys (Macaca mulatta); settings: for Monkeys suffering a vasospasm during the study: estriol cream treated ovariectomized monkeys, 12 step intracoronary serotonin+U46619 injection protocol
Procedure: The monkeys were entered into the study no less than 3 months after ovariectomy.
Angiography at the Dotter Institute, after overnight fasting, began with preanesthesia with ketamine (10 mg/kg body weight intramuscular), intubation with an endotracheal tube and a light surgical plane of anesthesia with isoflurane (induced at 1.5% to 3% maintained at 0.75% to 1.25%), vaporized with 33% nitrous oxide and 67% oxygen, or with 100% oxygen. Bilateral femoral intraarterial 3F catheters allowed for coronary catheterization and continuous recording of systemic arterial blood pressure and heart rate, which were maintained close to the initial anesthetic value for each monkey. Intravenous heparin (1,000 U) was injected, and up to 120 ml of pyruvated Ringer's solution and 0 to 50 ml of dextran solution were used (as needed) to maintain diastolic blood pressure ≧60 mm Hg. A heating pad assisted in maintenance of a body temperature decrease ≦2° C. of preanesthesia body temperature (monitored by rectal thermometer). An electrocardiogram (ECG) recorded on a Gould eight-channel recorder, cutaneous arterial oxygen saturation, respiratory rate and end-tidal CO2 were also monitored.
Entire experiments were recorded on videotape (with episodic fluoroscopic imaging and continuous voice annotation) to permit computerized quantitative coronary angiography. […]
Placement of the 3F catheter (except as noted later) was adjusted to provide sufficient filling with radio-opaque contrast medium, limited reflux and isolation of a branch of the coronary arterial tree. […] Fluoroscopic images were recorded on film using an OEC model 9800 digital x-ray system with fluoroscopic C-arm, digitally recorded, and evaluated in subsequent analysis. All procedures including a brief 0.2 ml injection of Hexabrix for optimal quantitative angiography were recorded on videotape for subsequent computer analysis. […]
After 4 weeks of daily treatment with 0.2 mg/kg of the estriol topical cream, the monkeys were studied by coronary catheterization, and reactivity was assessed by injection of serotonin (100 μM) and U46619 (1 μM).

[2] = Levels of estriol in saliva of human volunteers treated with skin cream; type: in vivo; settings: topical; for concentration at 24 h: human volunteers, 24 hours after second application, read-out: Salivary concentration of estriol (group average)
Procedure: Four human volunteers applied one of three estriol skin cream formulations in a base of polyethylene glycol, sorbitol, and water. The formulations were as described above in Example 3, except that one formulation contained 0.1% estriol, a second formulation contained 0.5% estriol, and a third contained 1% estriol. Each volunteer applied […] of one of the formulations daily for 2 days for a total applied dosage of 4 mg, 20 mg, and 40 mg of estriol, respectively.
Concentrations of estriol in saliva was measured 24 hours after the second application of the estriol cream formulations. The group that applied the 0.1% estriol averaged a salivary concentration of about 300 pg/ml. The 0.5% group averaged about 1500 pg/ml. The 1%group averaged about 4000 pg/ml.
In addition, salivary concentration of estriol was measured ten minutes following the application of 20 mg of estriol in skin cream. A concentration of 10 ng/ml was found, indicating rapid absorption.

[3] = Steroid levels in plasma and urine of estriol cream treated monkeys; settings: urine collected just prior to cardiac catheterization after 4 weeks daily 0.3% estriol topical cream; n = 5

concentration at 24 h ([2]; 0.1% estriol skin cream, 4 ml daily for 2 days (4 mg)): ~0.3 ng/mL
concentration at 24 h ([2]; 0.5% estriol skin cream, 4 ml daily for 2 days (20 mg)): ~1.5 ng/mL
concentration at 24 h ([2]; 1% estriol skin cream, 4 ml daily for 2 days (40 mg)): ~4 ng/mL
concentration at 10 min ([2]; human, ten minutes following application of 20 mg of estriol in skin cream, read-out: Salivary concentration of estriol): 10 ng/mL
E3 absorbed, urine (total) [3]: ***2412 +/− 316 (n = 5) ng/ml
SMILES: C[C@]12CC[C@@H]3c4ccc(O)cc4CC[C@H]3[C@@H]1C[C@@H](O)[C@@H]2O [Estriol]
Monkeys suffering a vasospasm during the study [1]: None of the monkeys
Monkeys suffering a vasospasm during the study ([1]; listed as E3): none of the E3 treated monkeys showed a vasospasm
Vasospasm criteria met (incidence) ([1]; ovariectomized monkeys, 4 weeks daily 0.3% estriol topical cream (0.2 mg/kg), intracoronary serotonin 100 μM + U46619 1 μM, criteria <33% of control diameter for >5 minutes): 0/6

Reference: patent US20030186954A1, “Estriol to treat and prevent cardiovascular disease” (priority 2002, published 2003)
